# According to patent US8802597B2, “Herbicidal pyrimidines” (E I du Pont de Nemours and Company, priority 2003, dated 2014):
# Tests used:
# Assay in all cases: Test C pre/postemergence
# Format in all cases: in vivo
# kochia (Kochia scoparia) = conditions: Postemergence; for Kochia plant response rating: scale 0 to 100 (0 no effect, 100 complete control); for Plant response rating, Kochia: scale 0 to 100
# Method in brief: (§1)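 Greenhouse pot test: seeds treated preemergence, or plants at 2–18 cm (1- to 4-leaf stage) treated postemergence, with compound in non-phytotoxic solvent plus surfactant. Visual rating versus untreated controls after 12–14 days, scale 0 (no effect) to 100 (complete control); dash means not tested.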
# [1] = test system: cocklebur (Xanthium strumarium); conditions: Postemergence; for Cocklebur plant response rating: scale 0 to 100 (0 no effect, 100 complete control); for Plant response rating, Cocklebur: scale 0 to 100
# Method in brief: as §1
# [2] = test system: velvetleaf (Abutilon theophrasti); conditions: Postemergence; for Velvetleaf plant response rating: scale 0 to 100 (0 no effect, 100 complete control); for Plant response rating, Velvetleaf: scale 0 to 100
# Method in brief: as §1
# [3] = test system: crabgrass (Digitaria sanguinalis); conditions: Postemergence; for Crabgrass plant response rating: scale 0 to 100 (0 no effect, 100 complete control); for Plant response rating, Crabgrass: scale 0 to 100
# Method in brief: as §1
# [4] = test system: goosegrass (Eleusine indica); conditions: Postemergence; for Goosegrass plant response rating: scale 0 to 100 (0 no effect, 100 complete control); for Plant response rating, Goosegrass: scale 0 to 100
# Method in brief: as §1
# [5] = test system: Surinam grass (Brachiaria decumbens); conditions: Postemergence; for Surinam Grass plant response rating: scale 0 to 100 (0 no effect, 100 complete control); for Plant response rating, Surinam Grass: scale 0 to 100
# Method in brief: as §1
# corn (Zea mays) = conditions: Postemergence; for Corn plant response rating: scale 0 to 100 (0 no effect, 100 complete control); for Plant response rating, Corn: scale 0 to 100
# Method in brief: as §1
# [6] = test system: common ragweed (Ambrosia elatior); conditions: Postemergence; for Ragweed plant response rating: scale 0 to 100 (0 no effect, 100 complete control); for Plant response rating, Ragweed: scale 0 to 100
# Method in brief: as §1
# [7] = test system: pigweed (Amaranthus retroflexus); conditions: Postemergence; for Pigweed plant response rating: scale 0 to 100 (0 no effect, 100 complete control); for Plant response rating, Pigweed: scale 0 to 100
# Method in brief: as §1
# [8] = test system: lambsquarters (Chenopodium album); conditions: Postemergence; for Lambsquarters plant response rating: scale 0 to 100 (0 no effect, 100 complete control); for Plant response rating, Lambsquarters: scale 0 to 100
# Method in brief: as §1
# [9] = test system: yellow nutsedge (Cyperus esculentus); conditions: Postemergence; for Nutsedge, Yellow plant response rating: scale 0 to 100 (0 no effect, 100 complete control); for Plant response rating, Nutsedge, Yellow: scale 0 to 100
# Method in brief: as §1
structure (smiles),measurement,setting,value
CC(=O)NN=Cc1nc(C2CC2)nc(N)c1Br [Compound 51],Kochia plant response rating,kochia (Kochia scoparia); 62 g ai/ha,15
same,Kochia plant response rating,kochia (Kochia scoparia); 125 g ai/ha,60
same,"Plant response rating, Kochia",kochia (Kochia scoparia); 250 g ai/ha,85
same,"Plant response rating, Kochia",kochia (Kochia scoparia); 500 g ai/ha,95
same,Cocklebur plant response rating,[1]; 62 g ai/ha,65
same,Cocklebur plant response rating,[1]; 125 g ai/ha,65
same,"Plant response rating, Cocklebur",[1]; 250 g ai/ha,70
same,"Plant response rating, Cocklebur",[1]; 500 g ai/ha,85
same,Velvetleaf plant response rating,[2]; 62 g ai/ha,0
same,Velvetleaf plant response rating,[2]; 125 g ai/ha,20
same,"Plant response rating, Velvetleaf",[2]; 250 g ai/ha,60
same,"Plant response rating, Velvetleaf",[2]; 500 g ai/ha,65
same,Crabgrass plant response rating,[3]; 62 g ai/ha,0
same,Crabgrass plant response rating,[3]; 125 g ai/ha,0
same,"Plant response rating, Crabgrass",[3]; 250 g ai/ha,0
same,"Plant response rating, Crabgrass",[3]; 500 g ai/ha,45
same,Goosegrass plant response rating,[4]; 62 g ai/ha,0
same,Goosegrass plant response rating,[4]; 125 g ai/ha,0
same,"Plant response rating, Goosegrass",[4]; 250 g ai/ha,0
same,"Plant response rating, Goosegrass",[4]; 500 g ai/ha,0
same,Surinam Grass plant response rating,[5]; 62 g ai/ha,0
same,Surinam Grass plant response rating,[5]; 125 g ai/ha,0
same,"Plant response rating, Surinam Grass",[5]; 250 g ai/ha,0
same,"Plant response rating, Surinam Grass",[5]; 500 g ai/ha,0
same,Corn plant response rating,corn (Zea mays); 62 g ai/ha,0
same,Corn plant response rating,corn (Zea mays); 125 g ai/ha,0
same,"Plant response rating, Corn",corn (Zea mays); 250 g ai/ha,0
same,"Plant response rating, Corn",corn (Zea mays); 500 g ai/ha,0
same,Ragweed plant response rating,[6]; 62 g ai/ha,65
same,Ragweed plant response rating,[6]; 125 g ai/ha,80
same,"Plant response rating, Ragweed",[6]; 250 g ai/ha,80
same,"Plant response rating, Ragweed",[6]; 500 g ai/ha,85
same,Pigweed plant response rating,[7]; 62 g ai/ha,65
same,Pigweed plant response rating,[7]; 125 g ai/ha,70
same,"Plant response rating, Pigweed",[7]; 250 g ai/ha,80
same,"Plant response rating, Pigweed",[7]; 500 g ai/ha,85
same,Lambsquarters plant response rating,[8]; 62 g ai/ha,60
same,Lambsquarters plant response rating,[8]; 125 g ai/ha,75
same,"Plant response rating, Lambsquarters",[8]; 250 g ai/ha,85
same,"Plant response rating, Lambsquarters",[8]; 500 g ai/ha,90
same,"Nutsedge, Yellow plant response rating",[9]; 62 g ai/ha,0
same,"Nutsedge, Yellow plant response rating",[9]; 125 g ai/ha,0
same,"Plant response rating, Nutsedge, Yellow",[9]; 250 g ai/ha,0
same,"Plant response rating, Nutsedge, Yellow",[9]; 500 g ai/ha,0
COC(=O)c1nc(-c2ccc(Cl)cc2)nc(N)c1Br [Compound 83],"Plant response rating (scale of 0 to 100), Kochia",kochia (Kochia scoparia); 16 g ai/ha,65
same,"Plant response rating (scale of 0 to 100), Kochia",kochia (Kochia scoparia); 31 g ai/ha,75
same,"Plant response rating (scale of 0 to 100), Kochia",kochia (Kochia scoparia); 62 g ai/ha,75
same,Kochia plant response rating,kochia (Kochia scoparia); 125 g ai/ha,90
same,"Plant response rating (scale of 0 to 100), Cocklebur",[1]; 16 g ai/ha,60
same,"Plant response rating (scale of 0 to 100), Cocklebur",[1]; 31 g ai/ha,70
same,"Plant response rating (scale of 0 to 100), Cocklebur",[1]; 62 g ai/ha,70
same,Cocklebur plant response rating,[1]; 125 g ai/ha,100
same,"Plant response rating (scale of 0 to 100), Velvetleaf",[2]; 16 g ai/ha,70
same,"Plant response rating (scale of 0 to 100), Velvetleaf",[2]; 31 g ai/ha,85
same,"Plant response rating (scale of 0 to 100), Velvetleaf",[2]; 62 g ai/ha,85
same,Velvetleaf plant response rating,[2]; 125 g ai/ha,100
same,"Plant response rating (scale of 0 to 100), Crabgrass",[3]; 16 g ai/ha,25
same,"Plant response rating (scale of 0 to 100), Crabgrass",[3]; 31 g ai/ha,45
same,"Plant response rating (scale of 0 to 100), Crabgrass",[3]; 62 g ai/ha,65
same,Crabgrass plant response rating,[3]; 125 g ai/ha,75
same,"Plant response rating (scale of 0 to 100), Goosegrass",[4]; 16 g ai/ha,10
same,"Plant response rating (scale of 0 to 100), Goosegrass",[4]; 31 g ai/ha,10
same,"Plant response rating (scale of 0 to 100), Goosegrass",[4]; 62 g ai/ha,30
same,Goosegrass plant response rating,[4]; 125 g ai/ha,45
same,"Plant response rating (scale of 0 to 100), Surinam Grass",[5]; 16 g ai/ha,20
same,"Plant response rating (scale of 0 to 100), Surinam Grass",[5]; 31 g ai/ha,30
same,"Plant response rating (scale of 0 to 100), Surinam Grass",[5]; 62 g ai/ha,45
same,Surinam Grass plant response rating,[5]; 125 g ai/ha,65
same,"Plant response rating (scale of 0 to 100), Corn",corn (Zea mays); 16 g ai/ha,5
same,"Plant response rating (scale of 0 to 100), Corn",corn (Zea mays); 31 g ai/ha,15
same,"Plant response rating (scale of 0 to 100), Corn",corn (Zea mays); 62 g ai/ha,50
same,Corn plant response rating,corn (Zea mays); 125 g ai/ha,60
same,"Plant response rating (scale of 0 to 100), Ragweed",[6]; 16 g ai/ha,65
same,"Plant response rating (scale of 0 to 100), Ragweed",[6]; 31 g ai/ha,70
same,"Plant response rating (scale of 0 to 100), Ragweed",[6]; 62 g ai/ha,75
same,Ragweed plant response rating,[6]; 125 g ai/ha,95
same,"Plant response rating (scale of 0 to 100), Pigweed",[7]; 16 g ai/ha,95
same,"Plant response rating (scale of 0 to 100), Pigweed",[7]; 31 g ai/ha,95
same,"Plant response rating (scale of 0 to 100), Pigweed",[7]; 62 g ai/ha,100
same,Pigweed plant response rating,[7]; 125 g ai/ha,100
same,"Plant response rating (scale of 0 to 100), Lambsquarters",[8]; 16 g ai/ha,90
same,"Plant response rating (scale of 0 to 100), Lambsquarters",[8]; 31 g ai/ha,95
same,"Plant response rating (scale of 0 to 100), Lambsquarters",[8]; 62 g ai/ha,95
same,Lambsquarters plant response rating,[8]; 125 g ai/ha,100
same,"Plant response rating (scale of 0 to 100), Nutsedge, Yellow",[9]; 16 g ai/ha,60
same,"Plant response rating (scale of 0 to 100), Nutsedge, Yellow",[9]; 31 g ai/ha,60
same,"Plant response rating (scale of 0 to 100), Nutsedge, Yellow",[9]; 62 g ai/ha,60
same,"Nutsedge, Yellow plant response rating",[9]; 125 g ai/ha,75
CCOC(=O)c1nc(-c2ccc(I)cc2)nc(N)c1Cl [Compound 133],"Plant response rating (scale of 0 to 100), Kochia",kochia (Kochia scoparia); 16 g ai/ha,75
same,"Plant response rating (scale of 0 to 100), Kochia",kochia (Kochia scoparia); 31 g ai/ha,80
same,"Plant response rating (scale of 0 to 100), Kochia",kochia (Kochia scoparia); 62 g ai/ha,85
same,Kochia plant response rating,kochia (Kochia scoparia); 125 g ai/ha,85
same,"Plant response rating (scale of 0 to 100), Cocklebur",[1]; 16 g ai/ha,75
same,"Plant response rating (scale of 0 to 100), Cocklebur",[1]; 31 g ai/ha,85
same,"Plant response rating (scale of 0 to 100), Cocklebur",[1]; 62 g ai/ha,95
same,Cocklebur plant response rating,[1]; 125 g ai/ha,95
same,"Plant response rating (scale of 0 to 100), Velvetleaf",[2]; 16 g ai/ha,80
same,"Plant response rating (scale of 0 to 100), Velvetleaf",[2]; 31 g ai/ha,85
same,"Plant response rating (scale of 0 to 100), Velvetleaf",[2]; 62 g ai/ha,85
same,Velvetleaf plant response rating,[2]; 125 g ai/ha,95
same,"Plant response rating (scale of 0 to 100), Crabgrass",[3]; 16 g ai/ha,50
same,"Plant response rating (scale of 0 to 100), Crabgrass",[3]; 31 g ai/ha,75
same,"Plant response rating (scale of 0 to 100), Crabgrass",[3]; 62 g ai/ha,75
same,Crabgrass plant response rating,[3]; 125 g ai/ha,80
same,"Plant response rating (scale of 0 to 100), Goosegrass",[4]; 16 g ai/ha,15
same,"Plant response rating (scale of 0 to 100), Goosegrass",[4]; 31 g ai/ha,55
same,"Plant response rating (scale of 0 to 100), Goosegrass",[4]; 62 g ai/ha,65
same,Goosegrass plant response rating,[4]; 125 g ai/ha,70
same,"Plant response rating (scale of 0 to 100), Surinam Grass",[5]; 16 g ai/ha,35
same,"Plant response rating (scale of 0 to 100), Surinam Grass",[5]; 31 g ai/ha,45
same,"Plant response rating (scale of 0 to 100), Surinam Grass",[5]; 62 g ai/ha,55
same,Surinam Grass plant response rating,[5]; 125 g ai/ha,70
same,"Plant response rating (scale of 0 to 100), Corn",corn (Zea mays); 16 g ai/ha,35
same,"Plant response rating (scale of 0 to 100), Corn",corn (Zea mays); 31 g ai/ha,40
same,"Plant response rating (scale of 0 to 100), Corn",corn (Zea mays); 62 g ai/ha,60
same,Corn plant response rating,corn (Zea mays); 125 g ai/ha,80
same,"Plant response rating (scale of 0 to 100), Ragweed",[6]; 16 g ai/ha,80
same,"Plant response rating (scale of 0 to 100), Ragweed",[6]; 31 g ai/ha,80
same,"Plant response rating (scale of 0 to 100), Ragweed",[6]; 62 g ai/ha,85
same,Ragweed plant response rating,[6]; 125 g ai/ha,95
same,"Plant response rating (scale of 0 to 100), Pigweed",[7]; 16 g ai/ha,85
same,"Plant response rating (scale of 0 to 100), Pigweed",[7]; 31 g ai/ha,85
same,"Plant response rating (scale of 0 to 100), Pigweed",[7]; 62 g ai/ha,95
same,Pigweed plant response rating,[7]; 125 g ai/ha,100
same,"Plant response rating (scale of 0 to 100), Lambsquarters",[8]; 16 g ai/ha,95
same,"Plant response rating (scale of 0 to 100), Lambsquarters",[8]; 31 g ai/ha,95
same,"Plant response rating (scale of 0 to 100), Lambsquarters",[8]; 62 g ai/ha,95
same,Lambsquarters plant response rating,[8]; 125 g ai/ha,100
same,"Plant response rating (scale of 0 to 100), Nutsedge, Yellow",[9]; 16 g ai/ha,60
same,"Plant response rating (scale of 0 to 100), Nutsedge, Yellow",[9]; 31 g ai/ha,75
same,"Plant response rating (scale of 0 to 100), Nutsedge, Yellow",[9]; 62 g ai/ha,75
same,"Nutsedge, Yellow plant response rating",[9]; 125 g ai/ha,80
